Experimental data from patent US20230172882A1, “Method For Treating Pancreatic Cancer” (Lantern Pharma Inc., priority 2020, published 2023).
pIC50: −log10 of the molar value.

Key:
[1] = system: pancreatic cancer cell lines; experiment: Cell viability, first study of 4 pancreatic cancer cell lines, 72 h; assay type: cell-based
Procedure: (§1) Individual cell lines were treated with LP-184 for 72 hours and cell viability was assayed. IC50 values were generated from dose response curves plotted in GraphPad Prism.

[2] = system: Capan-1 cell line derived xenograft tumors; experiment: Capan-1 cell line derived xenograft tumors in SCID mice; assay type: in vivo; settings: 3 mg/kg intraperitoneal, thrice weekly for 3 weeks; end of study period, 60 days
Procedure: All animal studies were carried out in compliance with National Institutes of Health Guidelines for animals. The doses were selected to be tolerated in xenografts. Capan-1 cell line derived xenograft tumors were implanted in SCID mice and treated either with (a) vehicle control of 95% saline/5% ethanol (N=3) or (b) 3 mg/kg LP-184 (N=5) administered by intraperitoneal injection over thrice weekly doses for 3 weeks. In other words, one group was treated with LP-184 and the other group was treated with the vehicle control.

[3] = system: pancreatic cancer cell lines; experiment: Cell viability, second study of pancreatic cancer cell lines, 72 h; assay type: cell-based; settings: treated 72 hours, range across cell lines (FIG. 2), read-out: cytotoxicity in terms of IC50 value
Procedure: as §1

HydroxyUreaMethyl Acylfulvene [LP-184]
potency in pancreatic cancer cell lines ([1]; FIG. 1 and FIG. 2, 72 hours): nanomolar potency | pIC50 ([1]; first study of 4 pancreatic cancer cell lines, treated 72 hours, range across cell lines (FIG. 1), read-out: cytotoxicity in terms of IC50 values): 6.51 to 6.96 | tumor volume growth / tumor regression [2]: Complete tumor regression | pIC50 [3]: 6.74 to 6.89
